For this assay, the system named is Staphylococcus aureus methicillin-resistant wild type T67738. Description: Susceptibility test, microtiter broth dilution (MIC), resistant S. aureus. In kind it is cell-based. To be noted: in culture. The procedure:
The strains were streaked on blood agar plates (trypticase soy broth containing 5% sheep cells). A single colony was isolated and grown in Mueller-Hinton Broth (MHB) as recommended by the national Committee for Clinical Laboratory Standards for rapidly growing bacteria. Candida species and related yeasts were isolated in a similar manner on brain-heart infusion agar (BHI).
The antibiotic susceptibility profile of each strain was determined using standard microtiter dilution plates obtained from the Clinical Microbiology Laboratory at Ohio State University Hospitals. The Inocula were prepared by suspending a 4 hour log phase growth in MHB visually equal in turbidity of an 0.5 McFarland standard. Inocula were further diluted and added to microdilution trays to achieve a final density of approximately 1×10^5 CFU/ml. The trays were incubated for 16 to 20 hours at 35° C. The highest dilution at which wells remained clear was considered to be the minimum inhibitory concentration (MIC).
The MIC and minimum bacterial concentration (MBC) of the strains to the active agents were determined by two-fold dilutions in Mueller-Hinton broth. […]

These results are taken from patent US20020169153A1, “Substituted aromatic compounds for treatment of antibiotic resistant infections” (priority 1998, published 2002).

For the compound `OC(c1c2cccc(Cl)c2cc2c(Cl)cccc12)C1CCCCN1` (stereo not drawn) [WR 218394, α-(2-PIPERIDYL)-4,5-DICHLORO-9-ANTHRACENEMETHANOL], the “Effective Concentration S. Aureous (Resist).” value stood at 3.1 µg/mL.
